According to patent publication US8440638B2, “Compositions and methods for modulating calcium flux, glucose homeostasis and apoptosis” (Wisconsin Alumni Research Foundation, priority 2004, dated 2013):

Assays:
TRPM2 channel = target: T1, TRPM2 channel (Homo sapiens, UniProt O94759); assay: Whole cell patch clamp, TRPM2 channel gating in tet-induced TRPM2-expressing HEK-293 cells; assay type: cell-based
T1 construct: expressed in transfected cells; host or cells: tetracycline-inducible HEK-293
Procedure: (§1) Shown is the development of whole cell currents over time in TRPM2-expressing HEK-293 cells. Bath solution was standard ringer's, and pipette solution was Cs-based and included 10 mM EGTA to buffer intracellular Ca^2+ to 10 nM. The patch pipette contained various concentrations of (FIG. 1a) ADPr, (FIG. 1b) OAADPr (FIG. 1c) OAADPr and puromycin as indicated in the figure. FIG. 1d.) Cytoplasmic OAADPr esterase activity is inhibited by puromycin. 200 μM O-[^3H]AADPr and 0-100 μM puromycin were added to cytoplasmic HEK-293 extract for 30 min. Percent hydrolysis of O-[^3H]AADPr to [^3H]acetate was measured as described hereinbelow. FIG. 1e.) Nuclear OAADPr acetyltransferase activity is not inhibited by puromycin. HEK-293 nuclear extract was incubated with 200 μM O-[^3H]AADPr in the presence or absence of 100 μM puromycin for 60 min. The reactions were quenched and resolved by HPLC. The radioactivity in collected fractions was determined by liquid scintillation counting. FIGS. 1f-g.) In vivo detection of OAADPr. Mass spectrum of HEK-293 generated OAADPr (peak m/z of 602.0894; the theoretical m/z for OAADPr is 602.0895) after puromycin treatment, with authentic [^13C]-OAADPr (peak m/z of 603.0851 and isotopic distribution of 604.0878 and 605.0928) as a standard. Peak 599.3691 is from the matrix.
Patch clamp electrophysiology was performed as previously described (23). Briefly, cells were patch clamped in the whole cell configuration at 25° C. using pipettes with resistances ranging from 2-3 MOhms. Currents were recorded on an EPC9 patch clamp amplifier with automatic capacitance compensation using a protocol generating a 50 msec voltage ramp from −100 to +100 mv every two seconds at a holding potential of 0 mv (appropriately corrected for liquid junction potential). Bath solution included 150 mM NaCl, 2.8 mM KCl, 5 mM CsCl, 1 mM CaCl2, 2 mM MgCl2, and 10 mM Hepes (pH 7.2). Pipette solution included 135 mM CsGlutamate, 1 mM MgCl2, 8 mM NaCl, 10 mM Hepes (pH 7.2), and 10 mM EGTA. […]

OAADPr esterase = assay: Cytoplasmic OAADPr esterase activity in HEK-293 cytoplasmic extract; assay type: biochemical
Procedure: as §1
Cytoplasmic and nuclear extracts were prepared from HEK-293 cells as previously described (22). To detect esterase activity (22), cytoplasmic extract was incubated with 200 μM O-[^3H]AADPr in the presence of 0-100 μM puromycin for 30 min. Activated charcoal slurry in PBS, pH 7.0 was added to quench the reaction and bind O-[^3H]AADPr. Samples were vortexed and centrifuged. Aliquots of the supernatant containing [^3H]acetate were removed and analyzed by liquid scintillation counting. To detect nuclear OAADPr metabolizing activity (22), nuclear extract was incubated with 200 μM O-[^3H]AADPr in the presence or absence of 100 μM puromycin for 60 min. The reaction was terminated by addition of TFA to 1%. […] Radioactivity in each elution fraction was measured by liquid scintillation counting.

HEK-293 cells = assay: Cell viability assay (calcein fluorescence), parental HEK-293 cells; assay type: cell-based; conditions: parental HEK-293, 5-50 μM, 16 h
Procedure: Shown are HEK-293 cells (closed diamond) and HEK-293 cells stably transfected with a tet-controlled TRPM2 construct in the presence (open squares) or absence of (open diamonds) tetracycline. Cells incubated in the presence of 0-50 μM puromycin for 16 h were assayed for viability by measuring fluorescence of calcein in live cells. b.) Removal of calcium rescues cells from puromycin induced cell death. TRPM2-expressing HEK-293 cells were grown in complete DMEM media and 1 μg/ml tetracycline until 80-90% confluent. One set of cells were re-fed with the same complete media (closed diamonds) and the other set of cells were rinsed with PBS and fed with modified media containing 1 μg/ml tetracycline, 5 mM EGTA and without calcium chloride (open squares). […] HEK-293 (close diamond) and TRPM2 expressing HEK-293 cells in the absence (open diamond) or presence of (closed square) tetracycline were exposed to 0-10 μg/ml cycloheximide for 16 h. Cell viability was determined as described in (a).
HEK-293, tet-inducible HEK-293, and CRI-G1 cells were seeded into 6 well plates at a density of 500,000 cells per well. […] Calcein is retained in living, but not dead cells, where it undergoes catalytic conversion into a fluorescent compound Fluorescence in each well was measured in a microplate reader using excitation and emission filters at 485/530 nm, respectively.

T1 sequence (O94759 whole entry): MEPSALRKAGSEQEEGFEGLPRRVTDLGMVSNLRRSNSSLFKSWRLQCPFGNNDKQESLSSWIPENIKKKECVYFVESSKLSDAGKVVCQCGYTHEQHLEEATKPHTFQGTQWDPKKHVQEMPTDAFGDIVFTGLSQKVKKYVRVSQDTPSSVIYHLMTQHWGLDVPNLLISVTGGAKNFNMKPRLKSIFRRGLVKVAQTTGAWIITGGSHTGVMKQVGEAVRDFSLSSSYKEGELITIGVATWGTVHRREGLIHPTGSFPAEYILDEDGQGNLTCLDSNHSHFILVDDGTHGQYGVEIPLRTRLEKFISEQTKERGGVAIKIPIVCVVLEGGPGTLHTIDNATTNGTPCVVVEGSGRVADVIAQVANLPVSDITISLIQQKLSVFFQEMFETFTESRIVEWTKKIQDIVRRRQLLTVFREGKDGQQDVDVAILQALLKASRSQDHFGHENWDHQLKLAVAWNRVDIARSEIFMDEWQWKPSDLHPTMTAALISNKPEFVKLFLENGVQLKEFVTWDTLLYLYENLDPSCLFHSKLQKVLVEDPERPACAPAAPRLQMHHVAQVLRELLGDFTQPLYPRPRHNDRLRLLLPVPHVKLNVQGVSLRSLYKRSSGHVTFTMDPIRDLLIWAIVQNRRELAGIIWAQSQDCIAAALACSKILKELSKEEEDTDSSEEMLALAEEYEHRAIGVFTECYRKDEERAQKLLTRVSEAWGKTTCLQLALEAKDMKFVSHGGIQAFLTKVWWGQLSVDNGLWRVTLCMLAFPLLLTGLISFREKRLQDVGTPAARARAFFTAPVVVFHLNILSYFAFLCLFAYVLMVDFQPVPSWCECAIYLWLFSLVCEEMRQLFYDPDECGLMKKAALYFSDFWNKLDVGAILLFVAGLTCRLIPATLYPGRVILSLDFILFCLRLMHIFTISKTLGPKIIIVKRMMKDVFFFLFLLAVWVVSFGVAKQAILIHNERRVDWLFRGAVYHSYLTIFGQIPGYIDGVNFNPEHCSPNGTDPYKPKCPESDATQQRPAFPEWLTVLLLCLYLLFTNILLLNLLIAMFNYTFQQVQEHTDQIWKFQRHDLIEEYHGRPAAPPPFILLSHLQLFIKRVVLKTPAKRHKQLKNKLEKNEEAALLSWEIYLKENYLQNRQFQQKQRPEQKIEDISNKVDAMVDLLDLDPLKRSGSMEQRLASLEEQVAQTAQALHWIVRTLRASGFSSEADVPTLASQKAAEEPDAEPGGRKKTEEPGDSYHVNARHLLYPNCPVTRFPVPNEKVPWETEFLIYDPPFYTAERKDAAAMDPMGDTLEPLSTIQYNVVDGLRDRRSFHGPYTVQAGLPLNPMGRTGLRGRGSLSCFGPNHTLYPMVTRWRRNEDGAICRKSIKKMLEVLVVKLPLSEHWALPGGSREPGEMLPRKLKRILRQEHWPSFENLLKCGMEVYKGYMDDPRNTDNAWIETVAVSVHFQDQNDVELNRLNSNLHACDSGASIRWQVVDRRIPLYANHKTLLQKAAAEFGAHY

COc1ccc(C[C@H](N)C(=O)N[C@H]2[C@@H](O)[C@H](n3cnc4c(N(C)C)ncnc43)O[C@@H]2CO)cc1 [puromycin]
effect on TRPM2 channel activity, compound alone (TRPM2 channel; 100 μM puromycin alone, data not shown): no affect | enhancement of OAADPr gated TRPM2 channel activity (TRPM2 channel; 125-250 μM puromycin in the patch pipette with OAADPr): no significant enhancement | inhibition of cytosolic esterase activity (OAADPr esterase; 5 μM puromycin): substantially inhibit | inhibition of esterase activity (OAADPr esterase; 80 μM puromycin): completely inhibited | inhibition of OAADPr esterase (OAADPr esterase; 200 μM O-[3H]AADPr, 0-100 μM puromycin, 30 min): potent inhibitor | cell death following puromycin treatment (HEK-293 cells): no significant cell death
